Laboratory results as given in patent US8679836B2, “Methods of monitoring angiogenesis and metastasis in three dimensional co-cultures” (The United States of America, as represented by the …, priority 2007, dated 2014).
Where two headings read alike, the source gives them in different places.

Experiments:
PAE-GFP cells = experiment: Tubule formation assay on gelled BME, quantified with AngioApplication; type: cell-based, porcine; details: for EC50: Sus scrofa
Procedure: This example describes exemplary procedures for measuring the ability of the cell lines disclosed herein for tubule formation potential. 50 μl of low growth factor BME (Basement Membrane Extract, Trevigen, Inc. Gaithersburg, Md.) were laid down in each well and the plate was incubated for 1 hour at 37° C. The extract gels at 37° C. to form a reconstituted basement membrane and stimulates tubule formation by endothelial cells. The major components of the Basement Membrane Extract (BME) include laminin I, collagen IV, entactin, and heparin sulfate proteoglycan. 15,000 PAE-GFP cells were then added on top of the gelled BME and images were acquired with a fluorescent microscope after 3.5-24 hours. Cells were imaged on the BD Pathway™ Bioimager. […] Tubule formation assays were quantified using the Java based software AngioApplication™. AngioApplication™ has been specifically designed for the quantification of tubule formation assays. Several morphological parameters were assessed in images including the total area of the tubules, the total number of tubules, number of nodes, number of branch points, the number of tubes per node, or node.
As shown in FIG. 7A increasing concentrations of suramin causes disruption of tubule formation. AngioApplication™ was used to automatically assess tube length at several concentrations of suramin. Traditionally quantification of tube formation was based in the measurement of complete (long) tubes in the image. AngioApplication™ determined that as the concentration of suramin was increased the number of long tubules was diminished. […] In addition, because AngioApplication™ calculates the length for all tubes in the image (including incomplete tubes) a more refined analysis was performed using the measurement of short (or incomplete) tubules. […] This is in agreement with the fact that Suramin interferes with the mechanism of tube formation.

HMEC-1 = experiment: 3D co-culture of HMEC-1 with leiomyosarcoma HTB-88 core biopsy xenograft, panel of angiogenesis inhibitors; type: cell-based, human; details: 100 μg/ml, five-day incubation, versus Thalidomide, Sunitinib, Fumagillin
Procedure: Peripheral ringlet xenograft tissue/HMEC-1 co-cultures were incubated with Avastin®, Thalidomide, Sunitinib or Fumagilin.
3D co-cultures were prepared as follows: 50 μl 1% SEAKEM™ LE agarose were added to individual wells of a 96-well plate and allowed to solidify at room temperature for 20 minutes. 30 μl GELTREX® gel matrix (Invitrogen) were combined with PAE, LEC or HMEC-1 cells at a cell density of 560,000 cells/ml and added to each well of the plate (atop the solidified agarose). Plates were maintained on wet ice (4° C.) to prevent solidification of the gel matrix/cell mixture (the second layer). A single tumor cell spheroid colony or single ringlet of xenograft core biopsy was added to the center of the well and the matrix gel was solidified at 37° C. On top of the tumor/endothelial cell gel layer, 80 μl EBM-2+1% FBS were added to a final concentration of EMB-2+0.5% FBS in relation to the total volume of the culture. Cultures were incubated at 37° C. for 5-20 days and endothelial vessel network formation was observed by confocal laser scanning fluorescence microscopy. […]
Identifying the most efficacious therapy for a particular patient is a crucial goal for successful cancer treatment. […] Several FDA approved anti-angiogenic compounds were assessed in this capacity, including Avastin®, Thalidomide, and Sunitinib as well as the non-FDA approved drug Fumagillin.

PAE cells = experiment: 3D co-culture of fluorescent PAE cells with leiomyosarcoma HTB-88 xenograft biopsy tissue; type: cell-based, porcine; details: 100 μg/ml, six days, FIG. 30
Procedure: Xenografts were prepared as in Example 7. Tumor xenografts were dissected when they reached about 1 cm in diameter and put into the sterile 15 ml or 50 ml tubes (Corning) with RPMI1640 medium supplemented with 10% FBS, 1% Glucose (Sigma), and 4× Antibiotic-Antimycotic (Invitrogen). The tumor xenografts were placed on wet ice and shipped to the lab within 2-3 hours. The Xenografts were rinsed 3 times in 70% ethanol and then 3 times in PBS. In the hood, the core biopsy was performed by biopsy punch (Miltex, Inc.) and was washed out into a 100 cm cell culture dish (Corning) by using a pipette to blow the top opening of the biopsy applicator. Using a disposable scalpel (Feather Safety Razor, Co. Japan), the core biopsy was dissected in three stages. 1 mm of both ends of the core biopsy was carefully cut off; they were transferred into a new 100 cm cell culture dish labeled P (peripheral section). Next, 1 mm of both ends of the remaining core biopsy were removed and discarded. […]
3D co-cultures were prepared as follows: 50 μl 1% SEAKEM™ LE agarose were added to individual wells of a 96-well plate and allowed to solidify at room temperature for 20 minutes. […] Cultures were incubated at 37° C. for 5-20 days and endothelial vessel network formation was observed by confocal laser scanning fluorescence microscopy. […]

Compound	effect on tubule formation (PAE-GFP cells; PAE green cells, 0 to 26 μM)	EC50 (PAE-GFP cells; read-out: EC50, number of long tubules) [µM]	EC50 (PAE-GFP cells; read-out: EC50, number of short (incomplete) tubules) [µM]	EC50 (PAE-GFP cells; read-out: EC50 calculated, tubule formation) [µM]	inhibition of proliferation, compared with the other inhibitors (HMEC-1)	inhibition of tubule formation, compared with the other inhibitors (HMEC-1)	effect on PAE proliferation (PAE cells)	effect on tubule formation (PAE cells)
Cc1ccc(C(=O)Nc2ccc(S(=O)(=O)O)c3cc(S(=O)(=O)O)cc(S(=O)(=O)O)c23)cc1NC(=O)c1cccc(NC(=O)Nc2cccc(C(=O)Nc3cc(C(=O)Nc4ccc(S(=O)(=O)O)c5cc(S(=O)(=O)O)cc(S(=O)(=O)O)c45)ccc3C)c2)c1 [suramin]	inhibited tubule formation	~26	~26	~26				
Avastin®: monoclonal antibody directed against an isoform of VEGF, FDA-approved angiogenesis inhibitor					greatest inhibition	greatest inhibition	inhibited	inhibited
